Experiments:
Format in all cases: biochemical
[1] = target: T1, CSNK1D (CK1 delta) (Homo sapiens, UniProt P48730); assay: Kinase screening service: CSNK1D; details: average of duplicates
T1 construct: purchased Life Technologies Corporation (Kinase Screening Service)
Experimental: (§1) The inhibitory effect of PT109 on other kinases including SGK and JNK was detected by the Kinase Screening Service of Life Technologies Corporation (The concentration of compound 9 was 10 μM, measurements were performed in duplicates, and the value was represented by an average) to investigate the selectivity of the compound for JNK and SGK1.

[2] = target: T2, NTRK1 (TRKA) (Homo sapiens, UniProt P04629); assay: Kinase screening service: NTRK1; details: average of duplicates
T2 construct: purchased Life Technologies Corporation (Kinase Screening Service)
T2 sequence (P04629 33-796): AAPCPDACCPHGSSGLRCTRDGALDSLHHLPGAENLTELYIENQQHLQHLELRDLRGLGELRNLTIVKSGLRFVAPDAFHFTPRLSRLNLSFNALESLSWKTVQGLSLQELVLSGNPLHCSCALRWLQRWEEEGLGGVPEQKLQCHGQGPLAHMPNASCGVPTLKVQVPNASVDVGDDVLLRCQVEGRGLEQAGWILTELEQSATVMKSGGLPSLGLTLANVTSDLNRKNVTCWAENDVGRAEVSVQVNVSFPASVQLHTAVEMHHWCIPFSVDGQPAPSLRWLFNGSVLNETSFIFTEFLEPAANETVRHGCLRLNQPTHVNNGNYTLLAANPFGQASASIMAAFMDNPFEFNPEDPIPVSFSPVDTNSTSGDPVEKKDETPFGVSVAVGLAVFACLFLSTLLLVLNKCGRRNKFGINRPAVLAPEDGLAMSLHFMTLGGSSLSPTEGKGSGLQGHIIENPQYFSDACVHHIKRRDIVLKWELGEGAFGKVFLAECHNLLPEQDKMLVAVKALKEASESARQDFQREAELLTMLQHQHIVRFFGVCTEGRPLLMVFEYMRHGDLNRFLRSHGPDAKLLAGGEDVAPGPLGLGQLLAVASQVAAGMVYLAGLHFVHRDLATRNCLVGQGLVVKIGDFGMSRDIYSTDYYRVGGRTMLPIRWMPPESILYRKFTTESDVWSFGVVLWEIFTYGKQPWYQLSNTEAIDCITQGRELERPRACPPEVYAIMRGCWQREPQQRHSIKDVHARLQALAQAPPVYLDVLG
Experimental: as §1

[3] = target: T3, CDK5/p25 (Homo sapiens, UniProt Q00535); assay: Kinase screening service: CDK5/p25; details: average of duplicates
T3 construct: purchased Life Technologies Corporation (Kinase Screening Service)
T3 sequence (Q00535 whole entry): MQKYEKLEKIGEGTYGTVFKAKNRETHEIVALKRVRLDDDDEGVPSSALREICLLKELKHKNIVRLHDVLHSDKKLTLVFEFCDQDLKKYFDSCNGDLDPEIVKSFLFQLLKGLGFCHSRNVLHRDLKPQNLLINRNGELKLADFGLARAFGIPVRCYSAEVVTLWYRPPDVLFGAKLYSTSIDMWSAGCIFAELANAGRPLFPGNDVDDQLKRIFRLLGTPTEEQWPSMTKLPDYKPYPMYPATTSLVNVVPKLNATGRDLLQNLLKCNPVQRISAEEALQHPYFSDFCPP
T3 sequence (Q15078 99-307 partner limits assumed): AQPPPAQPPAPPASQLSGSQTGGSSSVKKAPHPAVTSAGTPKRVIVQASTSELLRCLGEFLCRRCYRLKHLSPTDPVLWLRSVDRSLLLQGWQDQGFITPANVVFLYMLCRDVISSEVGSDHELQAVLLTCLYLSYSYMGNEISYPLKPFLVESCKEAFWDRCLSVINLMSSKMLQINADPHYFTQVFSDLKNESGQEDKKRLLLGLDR
Experimental: as §1

[4] = target: T4, NEK7 (Homo sapiens, UniProt Q8TDX7); assay: Kinase screening service: NEK7; details: average of duplicates
T4 construct: purchased Life Technologies Corporation (Kinase Screening Service)
Experimental: as §1

[5] = target: T5, MAPK1 (ERK2) (Homo sapiens, UniProt P28482); assay: Kinase screening service: MAPK1; details: average of duplicates
T5 construct: purchased Life Technologies Corporation (Kinase Screening Service)
T5 sequence (P28482 whole entry): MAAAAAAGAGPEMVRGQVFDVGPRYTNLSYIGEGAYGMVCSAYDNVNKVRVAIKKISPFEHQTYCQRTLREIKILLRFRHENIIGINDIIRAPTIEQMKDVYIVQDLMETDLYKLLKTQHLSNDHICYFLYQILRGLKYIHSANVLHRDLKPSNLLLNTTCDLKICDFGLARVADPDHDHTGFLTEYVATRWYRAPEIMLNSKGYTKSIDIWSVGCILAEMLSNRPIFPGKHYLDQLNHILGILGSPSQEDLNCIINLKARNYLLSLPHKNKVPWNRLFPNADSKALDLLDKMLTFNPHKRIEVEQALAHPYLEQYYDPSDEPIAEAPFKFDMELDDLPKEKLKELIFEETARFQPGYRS
Experimental: as §1

[6] = target: T6, SGK (SGK1) (Homo sapiens, UniProt O00141); assay: Kinase screening service (Life Technologies): SGK1; details: SGK (SGK1)
T6 construct: IC50; other: SGK (SGK1); other: 10 μM, average of duplicates; SGK (SGK1)
T6 sequence (O00141 whole entry S422D, form open): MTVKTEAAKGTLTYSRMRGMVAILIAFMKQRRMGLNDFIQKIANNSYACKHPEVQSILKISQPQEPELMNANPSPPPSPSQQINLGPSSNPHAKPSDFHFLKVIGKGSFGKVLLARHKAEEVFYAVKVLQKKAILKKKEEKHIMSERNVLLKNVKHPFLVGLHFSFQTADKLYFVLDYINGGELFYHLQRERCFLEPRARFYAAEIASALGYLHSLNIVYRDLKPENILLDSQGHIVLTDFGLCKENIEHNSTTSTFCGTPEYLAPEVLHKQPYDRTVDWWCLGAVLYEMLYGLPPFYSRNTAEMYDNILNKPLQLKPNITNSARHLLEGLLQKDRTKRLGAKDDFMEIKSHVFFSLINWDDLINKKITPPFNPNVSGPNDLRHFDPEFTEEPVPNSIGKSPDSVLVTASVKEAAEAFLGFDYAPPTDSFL
Experimental: (§2) The inhibitory effect of PT109 on SGK and INK was detected by the kinase screening commercialization service of Life Technologies Corporation.
as §1

[7] = target: T7, TYRO3 (RSE) (Homo sapiens, UniProt Q06418); assay: Kinase screening service: TYRO3; details: average of duplicates
T7 construct: purchased Life Technologies Corporation (Kinase Screening Service)
Experimental: as §1

[8] = target: T8, PRKCG (PKC gamma) (Homo sapiens, UniProt P05129); assay: Kinase screening service: PRKCG; details: average of duplicates
T8 construct: purchased Life Technologies Corporation (Kinase Screening Service)
Experimental: as §1

[9] = target: T9, RPS6KA4 (MSK2) (Homo sapiens, UniProt O75676); assay: Kinase screening service: RPS6KA4; details: average of duplicates
T9 construct: purchased Life Technologies Corporation (Kinase Screening Service)
Experimental: as §1

[10] = target: T10, ADRBK1 (GRK2) (Homo sapiens, UniProt P25098); assay: Kinase screening service: ADRBK1; details: average of duplicates
T10 construct: purchased Life Technologies Corporation (Kinase Screening Service)
T10 sequence (P25098 whole entry): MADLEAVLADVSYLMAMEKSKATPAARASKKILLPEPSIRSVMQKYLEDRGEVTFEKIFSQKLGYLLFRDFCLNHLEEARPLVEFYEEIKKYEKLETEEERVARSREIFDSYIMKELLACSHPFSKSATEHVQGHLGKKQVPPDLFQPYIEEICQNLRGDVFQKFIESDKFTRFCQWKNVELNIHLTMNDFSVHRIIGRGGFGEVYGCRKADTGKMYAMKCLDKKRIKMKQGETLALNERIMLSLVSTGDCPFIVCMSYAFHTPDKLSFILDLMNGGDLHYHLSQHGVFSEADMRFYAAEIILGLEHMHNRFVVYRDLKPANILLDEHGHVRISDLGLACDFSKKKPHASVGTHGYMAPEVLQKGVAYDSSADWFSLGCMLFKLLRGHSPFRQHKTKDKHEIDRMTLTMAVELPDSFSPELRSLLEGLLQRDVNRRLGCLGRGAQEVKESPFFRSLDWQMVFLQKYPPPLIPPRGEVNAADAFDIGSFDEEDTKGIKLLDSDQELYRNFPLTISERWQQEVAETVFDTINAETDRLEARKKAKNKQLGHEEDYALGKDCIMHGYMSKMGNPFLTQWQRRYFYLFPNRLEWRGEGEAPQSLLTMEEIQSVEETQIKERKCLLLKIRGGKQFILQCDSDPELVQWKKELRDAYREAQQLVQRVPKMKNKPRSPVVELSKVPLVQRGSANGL
Experimental: as §1

[11] = target: T11, TAOK2 (TAO1) (Homo sapiens, UniProt Q9UL54); assay: Kinase screening service: TAOK2; details: average of duplicates
T11 construct: purchased Life Technologies Corporation (Kinase Screening Service)
Experimental: as §1

[12] = target: T12, WNK2 (Homo sapiens, UniProt Q9Y3S1); assay: Kinase screening service: WNK2; details: average of duplicates
T12 construct: purchased Life Technologies Corporation (Kinase Screening Service)
Experimental: as §1

[13] = target: T13, SRMS (Srm) (Homo sapiens, UniProt Q9H3Y6); assay: Kinase screening service: SRMS; details: average of duplicates
T13 construct: purchased Life Technologies Corporation (Kinase Screening Service)
Experimental: as §1

[14] = target: T14, CHUK (IKK alpha) (Homo sapiens, UniProt O15111); assay: Kinase screening service: CHUK; details: average of duplicates
T14 construct: purchased Life Technologies Corporation (Kinase Screening Service)
Experimental: as §1

[15] = target: T15, MAPK10 (JNK3) (Homo sapiens, UniProt P53779); assay: Kinase screening service (Life Technologies): JNK3; details: average of duplicates
T15 construct: purchased Life Technologies Corporation (kinase screening service)
Experimental: as §2, §1

[16] = target: T16, PRKCH (PKC eta) (Homo sapiens, UniProt P24723); assay: Kinase screening service: PRKCH; details: average of duplicates
T16 construct: purchased Life Technologies Corporation (Kinase Screening Service)
Experimental: as §1

[17] = target: T17, ULK1 (Homo sapiens, UniProt O75385); assay: Kinase screening service: ULK1; details: average of duplicates
T17 construct: purchased Life Technologies Corporation (Kinase Screening Service)
T17 sequence (O75385 whole entry): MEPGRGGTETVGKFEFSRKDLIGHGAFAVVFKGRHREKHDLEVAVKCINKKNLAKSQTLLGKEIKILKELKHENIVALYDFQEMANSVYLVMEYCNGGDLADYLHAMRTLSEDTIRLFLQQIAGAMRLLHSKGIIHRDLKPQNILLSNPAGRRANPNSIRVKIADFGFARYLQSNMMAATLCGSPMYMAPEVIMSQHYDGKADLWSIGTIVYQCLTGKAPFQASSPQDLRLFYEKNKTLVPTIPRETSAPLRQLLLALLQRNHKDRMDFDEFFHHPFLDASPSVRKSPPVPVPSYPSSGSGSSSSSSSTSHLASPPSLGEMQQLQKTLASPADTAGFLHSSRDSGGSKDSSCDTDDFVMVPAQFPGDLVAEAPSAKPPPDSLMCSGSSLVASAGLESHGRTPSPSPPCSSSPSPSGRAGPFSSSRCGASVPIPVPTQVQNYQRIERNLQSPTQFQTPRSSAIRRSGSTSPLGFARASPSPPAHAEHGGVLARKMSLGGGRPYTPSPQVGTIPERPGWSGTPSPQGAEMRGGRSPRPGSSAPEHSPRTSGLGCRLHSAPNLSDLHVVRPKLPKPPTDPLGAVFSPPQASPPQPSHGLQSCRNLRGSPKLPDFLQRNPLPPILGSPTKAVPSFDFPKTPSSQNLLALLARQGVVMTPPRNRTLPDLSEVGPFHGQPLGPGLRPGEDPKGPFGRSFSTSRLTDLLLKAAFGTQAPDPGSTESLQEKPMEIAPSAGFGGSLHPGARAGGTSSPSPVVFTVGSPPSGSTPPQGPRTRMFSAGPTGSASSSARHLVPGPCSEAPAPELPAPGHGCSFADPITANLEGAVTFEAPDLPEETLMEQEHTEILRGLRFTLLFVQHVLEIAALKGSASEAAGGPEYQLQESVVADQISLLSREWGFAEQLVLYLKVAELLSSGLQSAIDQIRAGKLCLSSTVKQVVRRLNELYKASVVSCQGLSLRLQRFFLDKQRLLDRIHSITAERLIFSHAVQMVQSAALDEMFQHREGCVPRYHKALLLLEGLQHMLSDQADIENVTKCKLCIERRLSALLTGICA
Experimental: as §1

[18] = target: T18, AKT2 (PKB beta) (Homo sapiens, UniProt P31751); assay: Kinase screening service: AKT2; details: average of duplicates
T18 construct: purchased Life Technologies Corporation (Kinase Screening Service)
Experimental: as §1

[19] = target: T19, AURKC (Aurora C) (Homo sapiens, UniProt Q9UQB9); assay: Kinase screening service: AURKC; details: average of duplicates
T19 construct: purchased Life Technologies Corporation (Kinase Screening Service)
Experimental: as §1

[20] = target: T20, MAP3K7/MAP3K7IP1 (TAK1-TAB1) (Homo sapiens, UniProt O43318); assay: Kinase screening service: MAP3K7/MAP3K7IP1; details: average of duplicates
T20 construct: purchased Life Technologies Corporation (Kinase Screening Service)
Experimental: as §1

[21] = target: T21, MAP3K2 (MEKK2) (Homo sapiens, UniProt Q9Y2U5); assay: Kinase screening service: MAP3K2; details: average of duplicates
T21 construct: purchased Life Technologies Corporation (Kinase Screening Service)
Experimental: as §1

[22] = target: T22, MAP3K5 (ASK1) (Homo sapiens, UniProt Q99683); assay: Kinase screening service: MAP3K5; details: average of duplicates
T22 construct: purchased Life Technologies Corporation (Kinase Screening Service)
Experimental: as §1

[23] = target: T23, SGK2 (Homo sapiens, UniProt Q9HBY8); assay: Kinase screening service (Life Technologies): SGK2
T23 construct: purchased Life Technologies Corporation (kinase screening service)
Text: as §2

[24] = target: T24, MAPK9 (JNK2) (Homo sapiens, UniProt P45984); assay: Kinase screening service (Life Technologies): JNK2; details: average of duplicates
T24 construct: purchased Life Technologies Corporation (kinase screening service)
Experimental: as §2, §1

T1 sequence (P48730 whole entry): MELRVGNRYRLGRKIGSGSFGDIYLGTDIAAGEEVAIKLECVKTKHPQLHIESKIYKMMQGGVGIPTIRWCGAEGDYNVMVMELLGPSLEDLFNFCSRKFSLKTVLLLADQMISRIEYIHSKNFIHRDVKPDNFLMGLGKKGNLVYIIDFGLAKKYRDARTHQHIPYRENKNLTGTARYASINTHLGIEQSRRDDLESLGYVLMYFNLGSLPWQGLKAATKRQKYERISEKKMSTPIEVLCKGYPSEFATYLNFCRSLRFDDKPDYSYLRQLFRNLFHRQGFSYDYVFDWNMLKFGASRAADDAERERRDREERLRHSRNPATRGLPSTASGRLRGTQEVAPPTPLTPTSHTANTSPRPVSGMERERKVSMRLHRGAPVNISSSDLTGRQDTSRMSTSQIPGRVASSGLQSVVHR

inhibition at 10 µM [1]: 6% | inhibition at 10 µM [2]: 35% | inhibition at 10 µM [3]: 18% | inhibition at 10 µM [4]: 2% | inhibition at 10 µM [5]: 4% | % Inhibition ([6]; 10 μM, average of duplicates): 91% | IC50 [6]: 1.34 µM | inhibition at 10 µM [7]: 12% | inhibition at 10 µM [8]: 63% | inhibition at 10 µM [9]: 28% | inhibition at 10 µM [10]: 6% | inhibition at 10 µM [11]: -6% | inhibition at 10 µM [12]: 13% | inhibition at 10 µM [13]: 20% | inhibition at 10 µM [14]: 16% | inhibition at 10 µM [15]: 90% | inhibition at 10 µM [16]: -17% | inhibition at 10 µM [17]: 26% | inhibition at 10 µM [18]: 30% | inhibition at 10 µM [19]: 5% | inhibition at 10 µM [20]: 39% | inhibition at 10 µM [21]: 10% | inhibition at 10 µM [22]: 9% | IC50 [23]: 5.6 µM | inhibition at 10 µM [24]: 91%
Compound: O=C(CCCCC1CCSS1)NC1CCC(Nc2cccc3cnccc23)CC1 (stereo not shown) [PT109, 5-(1,2-dithiolan-3-yl)-N-(4-(isoquinolin-5-ylamino)cyclohexyl) pentanamide]

Source: patent US10723724B2, “Compounds for treating degenerative diseases of central nervous system or brain tumor, and uses thereof” (SUN YAT-SEN UNIVERSITY, priority 2016, dated 2020)
